Experimental data taken from patent US10052320B2, “Substituted quinoxalines as FGFR kinase inhibitors” (ASTEX THERAPEUTICS LIMITED, priority 2011, dated 2018).
Read-outs that look alike come from different tables or passages of the source.

Experiments:
[1] = molecular target: Ba/F3-FGFR4-transfected cells (Homo sapiens, UniProt P22455); test: Ba/F3-FGFR4 cellular proliferation assay, Alamar Blue; type: cell-based
Protocol: Ba/F3-FGFR4 (Cellular Proliferation Assay)
In a 384 well plate, 100 nl of compound dilution in DMSO was sprayed before adding 50 μl cell culture medium (phenol red free RPMI-1640, 10% FBS, 2 mM L-Glutamine and 50 μg/ml Gentamycin) containing 20000 cells per well of Ba/F3-FGFR4-transfected cells. Cells were put in an incubator at 37° C. and 5% CO2. After 24 hours, 10 μl of Alamar Blue solution (0.5 mM K3Fe(CN)6, 0.5 mM KaFe(CN)6, 0.15 mM Resazurin and 100 mM Phosphate Buffer) was added to the wells, incubated for 4 hours at 37° C. and 5% CO2 before RFU's (Relative Fluorescence Units) (ex. 540 nm., em. 590 nm.) were measured in a flurorescence plate reader.

[2] = molecular target: T1, Ba/F3-Flt3-transfected cells (Homo sapiens, UniProt P36888, cells depend on it, form not given); test: Ba/F3-Flt3 (minus IL3) cellular proliferation assay, Alamar Blue; type: cell-based
T1 sequence (P36888 1-993): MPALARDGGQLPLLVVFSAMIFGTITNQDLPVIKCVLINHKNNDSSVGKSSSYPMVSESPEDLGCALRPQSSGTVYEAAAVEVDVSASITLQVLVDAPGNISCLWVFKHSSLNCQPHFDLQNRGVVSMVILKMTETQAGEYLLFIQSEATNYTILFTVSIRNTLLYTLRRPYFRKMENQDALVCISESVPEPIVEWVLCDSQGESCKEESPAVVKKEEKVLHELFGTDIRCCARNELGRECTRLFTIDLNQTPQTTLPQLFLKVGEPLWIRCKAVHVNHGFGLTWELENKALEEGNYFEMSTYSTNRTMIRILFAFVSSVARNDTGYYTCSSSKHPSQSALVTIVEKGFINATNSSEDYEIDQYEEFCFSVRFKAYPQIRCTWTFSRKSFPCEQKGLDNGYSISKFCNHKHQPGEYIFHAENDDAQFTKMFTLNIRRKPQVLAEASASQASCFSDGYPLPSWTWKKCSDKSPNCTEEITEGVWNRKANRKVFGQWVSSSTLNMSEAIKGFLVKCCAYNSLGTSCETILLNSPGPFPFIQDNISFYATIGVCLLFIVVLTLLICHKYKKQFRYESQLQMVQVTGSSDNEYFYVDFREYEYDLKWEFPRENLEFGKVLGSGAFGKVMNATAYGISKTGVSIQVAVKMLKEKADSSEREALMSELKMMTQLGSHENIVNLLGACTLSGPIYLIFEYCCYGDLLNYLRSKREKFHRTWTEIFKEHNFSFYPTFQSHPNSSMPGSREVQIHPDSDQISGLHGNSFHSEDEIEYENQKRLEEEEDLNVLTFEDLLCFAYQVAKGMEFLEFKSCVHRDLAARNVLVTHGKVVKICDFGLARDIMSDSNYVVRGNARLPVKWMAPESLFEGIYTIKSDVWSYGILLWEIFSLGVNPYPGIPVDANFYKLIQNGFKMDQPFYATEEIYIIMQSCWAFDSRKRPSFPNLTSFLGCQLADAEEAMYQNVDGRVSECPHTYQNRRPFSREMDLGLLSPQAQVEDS

FGFR4 (h) = FGFR4 (h) (Homo sapiens, UniProt P22455); test: FGFR4 (enzymatic assay), TR-FRET; type: biochemical; conditions: read-out: FGFR 4 pIC50 (converted)
Protocol: (§1) In a final reaction volume of 30 μL, FGFR4 (h) (60 ng/ml) was incubated with 50 mM HEPES pH 7.5, 6 mM MnCl2, 1 mM DTT, 0.1 mM Na3VO4, 0.01% Triton-X-100, 500 nM Btn-Flt3 and 5 μM ATP in the presence of compound (1% DMSO final). […] Time-Resolved Fluorescence Resonance Energy Transfer (TR-FRET) signal (ex340 nm. Em 620 nm, em 655 nm) was measured afterwards and results are expressed in RFU (Relative Fluorescence Units).

FGFR2 (h) = FGFR2 (h) (Homo sapiens, UniProt P21802); test: FGFR2 (enzymatic assay), TR-FRET; type: biochemical; conditions: read-out: FGFR 2 pIC50 (converted)
Protocol: as §1, with “μL, FGFR2” for “μL, FGFR4”, “(h) (150” for “(h) (60”, “and 0.4” for “and 5”, “in” for “in RFU”

FGFR3 (h) = FGFR3 (h) (Homo sapiens, UniProt P22607); test: FGFR3 (enzymatic assay), TR-FRET; type: biochemical; conditions: read-out: FGFR 3 pIC50 (converted)
Protocol: as §1, with “μL, FGFR3” for “μL, FGFR4”, “(h) (40” for “(h) (60”, “and 25” for “and 5”

Chain of FGFR3 (h) (P22607 23-806): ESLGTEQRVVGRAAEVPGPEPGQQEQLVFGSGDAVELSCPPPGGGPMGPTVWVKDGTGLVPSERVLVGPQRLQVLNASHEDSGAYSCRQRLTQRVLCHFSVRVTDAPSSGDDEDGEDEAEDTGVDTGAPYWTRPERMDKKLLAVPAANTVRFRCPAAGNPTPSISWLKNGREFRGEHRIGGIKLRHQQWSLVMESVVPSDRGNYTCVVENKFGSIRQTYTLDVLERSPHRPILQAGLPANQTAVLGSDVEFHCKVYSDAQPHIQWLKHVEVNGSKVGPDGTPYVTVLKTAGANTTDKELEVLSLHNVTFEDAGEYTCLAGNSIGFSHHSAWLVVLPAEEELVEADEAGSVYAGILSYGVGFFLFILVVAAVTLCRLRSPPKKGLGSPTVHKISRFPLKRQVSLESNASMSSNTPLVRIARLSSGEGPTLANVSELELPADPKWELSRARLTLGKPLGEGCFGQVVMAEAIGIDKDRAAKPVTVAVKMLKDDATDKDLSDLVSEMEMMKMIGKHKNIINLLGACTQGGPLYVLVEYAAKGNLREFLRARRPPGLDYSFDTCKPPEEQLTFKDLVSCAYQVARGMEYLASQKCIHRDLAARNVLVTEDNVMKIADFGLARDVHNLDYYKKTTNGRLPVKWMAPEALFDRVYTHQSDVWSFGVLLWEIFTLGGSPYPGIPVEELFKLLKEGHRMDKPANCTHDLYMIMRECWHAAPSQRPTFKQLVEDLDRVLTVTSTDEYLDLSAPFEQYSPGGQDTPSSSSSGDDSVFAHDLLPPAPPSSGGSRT
Chain of FGFR4 (h) (P22455 22-802): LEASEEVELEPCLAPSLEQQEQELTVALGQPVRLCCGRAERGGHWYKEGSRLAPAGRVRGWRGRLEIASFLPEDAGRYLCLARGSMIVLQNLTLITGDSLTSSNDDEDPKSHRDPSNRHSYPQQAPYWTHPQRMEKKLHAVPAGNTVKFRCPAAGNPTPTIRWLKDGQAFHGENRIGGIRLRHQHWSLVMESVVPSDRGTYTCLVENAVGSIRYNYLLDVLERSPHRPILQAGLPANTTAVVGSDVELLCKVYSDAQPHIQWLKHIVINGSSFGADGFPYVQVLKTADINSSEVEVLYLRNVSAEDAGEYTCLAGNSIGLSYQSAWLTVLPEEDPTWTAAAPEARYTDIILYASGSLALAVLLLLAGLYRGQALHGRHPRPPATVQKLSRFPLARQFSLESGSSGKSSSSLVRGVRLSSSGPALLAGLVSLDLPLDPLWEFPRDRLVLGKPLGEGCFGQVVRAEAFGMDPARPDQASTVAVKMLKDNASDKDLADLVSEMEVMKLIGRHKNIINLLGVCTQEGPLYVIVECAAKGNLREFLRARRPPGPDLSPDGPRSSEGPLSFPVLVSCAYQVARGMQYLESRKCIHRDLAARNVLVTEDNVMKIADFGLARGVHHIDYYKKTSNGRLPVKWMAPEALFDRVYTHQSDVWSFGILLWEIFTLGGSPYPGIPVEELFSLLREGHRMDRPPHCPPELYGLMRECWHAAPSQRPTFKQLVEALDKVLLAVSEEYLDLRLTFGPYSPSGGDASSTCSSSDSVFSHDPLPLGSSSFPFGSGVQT
Chain of FGFR2 (h) (P21802 22-821): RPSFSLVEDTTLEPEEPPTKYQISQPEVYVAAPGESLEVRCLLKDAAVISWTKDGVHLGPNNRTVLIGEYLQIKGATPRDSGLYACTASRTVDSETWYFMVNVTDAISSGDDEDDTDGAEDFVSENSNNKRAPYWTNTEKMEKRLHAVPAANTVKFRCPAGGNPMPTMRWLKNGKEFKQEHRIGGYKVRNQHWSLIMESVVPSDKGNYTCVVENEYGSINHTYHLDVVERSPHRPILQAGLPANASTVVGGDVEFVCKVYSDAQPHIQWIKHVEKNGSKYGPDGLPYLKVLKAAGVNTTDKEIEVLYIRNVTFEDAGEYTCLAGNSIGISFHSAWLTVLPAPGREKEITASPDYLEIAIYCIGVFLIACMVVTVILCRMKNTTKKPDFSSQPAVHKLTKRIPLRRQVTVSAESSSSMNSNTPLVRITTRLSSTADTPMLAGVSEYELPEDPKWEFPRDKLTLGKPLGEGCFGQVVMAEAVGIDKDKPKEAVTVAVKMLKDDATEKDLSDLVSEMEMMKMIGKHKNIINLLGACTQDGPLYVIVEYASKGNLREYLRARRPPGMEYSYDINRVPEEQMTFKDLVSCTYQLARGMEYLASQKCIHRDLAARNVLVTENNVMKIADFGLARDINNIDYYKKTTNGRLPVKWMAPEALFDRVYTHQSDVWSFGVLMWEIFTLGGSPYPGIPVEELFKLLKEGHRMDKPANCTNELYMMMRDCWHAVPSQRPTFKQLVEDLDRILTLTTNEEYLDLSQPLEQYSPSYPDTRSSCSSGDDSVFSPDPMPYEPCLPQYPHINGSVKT
Chain of Ba/F3-FGFR4-transfected cells (P22455 whole entry, change not shown): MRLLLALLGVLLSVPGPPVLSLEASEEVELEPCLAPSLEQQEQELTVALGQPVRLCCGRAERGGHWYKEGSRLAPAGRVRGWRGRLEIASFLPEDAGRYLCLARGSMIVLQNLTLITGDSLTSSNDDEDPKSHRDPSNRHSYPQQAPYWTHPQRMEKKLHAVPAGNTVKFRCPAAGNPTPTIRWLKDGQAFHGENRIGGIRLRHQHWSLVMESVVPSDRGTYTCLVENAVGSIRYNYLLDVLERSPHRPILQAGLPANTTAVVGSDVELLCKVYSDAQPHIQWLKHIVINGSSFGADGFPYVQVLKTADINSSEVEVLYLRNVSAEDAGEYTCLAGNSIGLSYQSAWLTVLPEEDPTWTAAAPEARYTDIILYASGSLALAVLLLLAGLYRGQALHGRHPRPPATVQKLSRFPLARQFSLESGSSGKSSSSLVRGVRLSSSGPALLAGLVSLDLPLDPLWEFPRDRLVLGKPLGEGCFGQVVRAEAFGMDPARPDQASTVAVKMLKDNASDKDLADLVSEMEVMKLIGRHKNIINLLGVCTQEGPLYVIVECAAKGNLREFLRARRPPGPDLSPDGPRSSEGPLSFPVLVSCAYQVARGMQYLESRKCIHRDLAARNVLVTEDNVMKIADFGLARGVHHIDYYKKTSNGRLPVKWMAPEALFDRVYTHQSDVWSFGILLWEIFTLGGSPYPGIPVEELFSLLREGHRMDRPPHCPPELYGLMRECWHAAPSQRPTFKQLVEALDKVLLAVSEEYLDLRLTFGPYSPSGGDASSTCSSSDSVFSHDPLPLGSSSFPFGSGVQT

SMILES	BAF3-FGFR4 pIC50 [1]	BAF3-FLT3 (MIN IL3) 384 well pIC50 ([2]; minus IL3)	IC50 (FGFR4 (h))	IC50 (FGFR2 (h))	IC50 (FGFR3 (h))	BAF3-FGFR4 pIC50 ([1]; 384 well)	BAF3-FLT3 (MIN IL3) 96 well pIC50 ([2]; minus IL3, 96 well)	BAF3-FLT3 (MIN IL3) 384 well pIC50 ([2]; minus IL3, 384 well)	BAF3-FLT3 (MIN IL3) 96 well pIC50 ([2]; minus IL3)
COc1cc(OC)cc(N(CCCO)c2ccc3ncc(-c4cccnc4F)nc3c2)c1 [Compound 149]	5.6	<5	166 nM	102 nM	35.5 nM	–	–	–	–
COc1cc(OC)cc(N(CCCNC(C)C)c2ccc3ncc(-c4ccnc(NC(=O)OC(C)(C)C)c4)nc3c2)c1 [Compound 137]	6.1	5.91	42.7 nM	8.32 nM	8.51 nM	–	–	–	–
COc1cc(OC)cc(N(CC2CC2)c2ccc3ncc(-c4ccnc(N5CCN(C)CC5)c4)nc3c2)c1 [Compound 37]	–	–	302 nM	95.5 nM	36.3 nM	5.3	5.59	5.05	–
COc1cc(OC)cc(N(CCO)c2ccc3ncc(N4CCC(CN)CC4)nc3c2)c1 [Compound 84]	<5	<5	617 nM	91.2 nM	40.7 nM	–	–	–	–
COc1cc(OC)cc(N(CCCO)c2ccc3ncc(-c4cnc(N5CCN(C)CC5)c(C)c4)nc3c2)c1 [Compound 135]	6.1	5.43	28.8 nM	6.17 nM	2.45 nM	–	–	–	–
COc1cc(OC)cc(N(CCCO)c2ccc3ncc(-c4ccnc(-c5ccnc(Cl)c5)c4)nc3c2)c1 [Compound 133]	<5	<5	> 1000 nM	115 nM	50.1 nM	–	–	–	–
COc1cc(OC)cc(N(CCO)c2ccc3ncc(C4=CCN(C(=O)OC(C)(C)C)CC4)nc3c2)c1 [Compound 178]	5.9	<5	56.2 nM	12.3 nM	2.88 nM	–	–	–	–
COc1cc(OC)cc(N(CCCNCC(F)(F)F)c2ccc3ncc(-c4ccnc(C(=O)NCCCN)c4)nc3c2)c1 [Compound 148]	<5	<5	603 nM	58.9 nM	61.7 nM	–	–	–	–
COc1cc(OC)cc(N(CCO)c2ccc3ncc(C4=CCN(C(=O)OC(C)(C)C)C4)nc3c2)c1 [Compound 173]	5.6	<5	100 nM	32.4 nM	10.2 nM	–	–	–	–
COCC(CN(c1cc(OC)cc(OC)c1)c1ccc2ncc(-c3cccnc3)nc2c1)OC(C)=O (single isomer, unassigned) [Compound 52]	5.2	<5	407 nM	91.2 nM	28.8 nM	–	–	–	–
COc1cc(OC)cc(N(CC2CC2)c2ccc3ncc(-c4nnc(C)o4)nc3c2)c1 [Compound 85]	–	–	1480 nM	380 nM	191 nM	<5	<5	<5	–
COc1cc(OC)cc(N(CCO)c2ccc3ncc(-n4cnc(CO)c4)nc3c2)c1 [Compound 38]	5.8	<5	93.3 nM	25.7 nM	10.5 nM	–	–	–	–
COc1cc(OC)cc(N(CC2CC2)c2ccc3ncc(N4CCN(C)CC4)nc3c2)c1 [Compound 64]	–	–	2880 nM	331 nM	191 nM	<5	~5.12	<5	–
COc1cc(OC)cc(N(CCNC(C)C)c2ccc3ncc(-c4ccc(N5CCOCC5)nc4)nc3c2)c1 [Compound 168]	6.9	5.13	8.32 nM	3.72 nM	3.24 nM	–	–	–	–
COc1cc(OC)cc(N(CC2CC2)c2ccc3ncc(-c4ccc5[nH]ccc5c4)nc3c2)c1 [Compound 86]	–	–	3980 nM	1820 nM	417 nM	<5	<5	<5	–
COc1cc(OC)cc(N(CCO)c2ccc3ncc(-c4ccc(N5CCOCC5)nc4)nc3c2)c1 [Compound 19]	6.1	<5	17.8 nM	10.7 nM	1.95 nM	–	–	–	–
COc1cc(OC)cc(N(CCCNCC(F)(F)F)c2ccc3ncc(-c4ccnc(C(=O)NCCCCCO)c4)nc3c2)c1 [Compound 150]	~5.0	<5	224 nM	70.8 nM	49 nM	–	–	–	–
COc1cc(OC)cc(N(CCN2CCN(C(C)=O)CC2)c2ccc3ncc(-c4ccc(N)nc4)nc3c2)c1 [Compound 68]	5.7	<5	282 nM	33.9 nM	33.9 nM	–	–	–	–
CO/N=C(\C)c1cnc2ccc(N(CCO)c3cc(OC)cc(OC)c3)cc2n1 [Compound 29]	<5	<5	234 nM	115 nM	38.9 nM	–	–	–	–
COc1cc(OC)cc(N(CC2CC2)c2ccc3ncc(-c4ccc5c(c4)OCO5)nc3c2)c1 [Compound 87]	–	–	3550 nM	955 nM	209 nM	<5	–	<5.4	–
COc1cc(OC)cc(N(CCO)c2ccc3ncc(-c4ccccc4CCO)nc3c2)c1 [Compound 151]	<5	<5	891 nM	513 nM	200 nM	–	–	–	–
COc1cc(OC)cc(N(CCNC(C)C)c2ccc3ncc(C(=O)N4CCCCC4)nc3c2)c1 [Compound 180]	5.2	<5	977 nM	302 nM	263 nM	–	–	–	–
COc1cc(OC)cc(N(CC2CC2)c2ccc3ncc(C(=O)N4CCC4)nc3c2)c1 [Compound 93]	<5	<5	> 10000 nM	> 10000 nM	2340 nM	–	–	–	<5
COc1cc(OC)cc(N(CCNC(C)C)c2ccc3ncc(-c4ccnc(C(=O)NCCCN)c4)nc3c2)c1 [Compound 146]	6.3	<5	49 nM	8.13 nM	12.3 nM	–	–	–	–
